Holding throughout (experiment): Post-emergence efficacy, glasshouse spray test
Type in all cases: in vivo

In assay [1] the test system is Setaria faberi (SETFA). Particulars: Setaria faberi, post-emergence, 312 h, evaluated after 13 days, read-out: Control of weed species SETFA after post-emergence application (100=total damage to plant; 0=no damage to plant); for pest or weed control at 500 g/ha: application rate 500 g/Ha; for pest or weed control at 1000 g/ha: application rate 1000 g/Ha. An outline of the steps: (§1)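 Compound formulated in acetone/IF50 and diluted into 0.25% or 1% Empicol ESC70 with 1% ammonium sulphate was sprayed on glasshouse seedlings 14 days after sowing. Growth continued at 24/16 °C, 14 h light, 65% humidity with twice-daily watering; damage (0–100) scored on day 13.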

Assay [2] has as its system Digitaria sanguinalis (DIGSA). Particulars: Digitaria sanguinalis, post-emergence, 312 h, evaluated after 13 days, read-out: Control of weed species DIGSA after post-emergence application (100=total damage to plant; 0=no damage to plant); for pest or weed control at 500 g/ha: application rate 500 g/Ha; for pest or weed control at 1000 g/ha: application rate 1000 g/Ha. In a few lines: as §1

Assay [3] relates to Chenopodium album (CHEAL). As to conditions: Chenopodium album, post-emergence, 312 h, evaluated after 13 days, read-out: Control of weed species CHEAL after post-emergence application (100=total damage to plant; 0=no damage to plant); for pest or weed control at 500 g/ha: application rate 500 g/Ha; for pest or weed control at 1000 g/ha: application rate 1000 g/Ha. In a few lines: as §1

The test system of assay [4] is Eleusine indica (ELEIN). As to conditions: Eleusine indica, post-emergence, 312 h, evaluated after 13 days, read-out: Control of weed species ELEIN after post-emergence application (100=total damage to plant; 0=no damage to plant); for pest or weed control at 500 g/ha: application rate 500 g/Ha; for pest or weed control at 1000 g/ha: application rate 1000 g/Ha. In a few lines: as §1

In assay [5] the test system is Ipomoea hederacea (IPOHE). Particulars: Ipomoea hederacea, post-emergence, 312 h, evaluated after 13 days, read-out: Control of weed species IPOHE after post-emergence application (100=total damage to plant; 0=no damage to plant); for pest or weed control at 500 g/ha: application rate 500 g/Ha; for pest or weed control at 1000 g/ha: application rate 1000 g/Ha. In a few lines:
as §1

Assay [6] relates to Amaranthus palmeri (AMAPA). As to conditions: Amaranthus palmeri, post-emergence, 312 h, evaluated after 13 days, read-out: Control of weed species AMAPA after post-emergence application (100=total damage to plant; 0=no damage to plant); for pest or weed control at 500 g/ha: application rate 500 g/Ha; for pest or weed control at 1000 g/ha: application rate 1000 g/Ha. An outline of the steps: as §1

Assay [7] relates to Lolium perenne (LOLPE). As to conditions: Lolium perenne, post-emergence, 312 h, evaluated after 13 days, read-out: Control of weed species LOLPE after post-emergence application (100=total damage to plant; 0=no damage to plant); for pest or weed control at 500 g/ha: application rate 500 g/Ha; for pest or weed control at 1000 g/ha: application rate 1000 g/Ha. An outline of the steps:
as §1

Assay [8] deals with Euphorbia heterophylla (EPHHL). As to conditions: Euphorbia heterophylla, post-emergence, 312 h, evaluated after 13 days, read-out: Control of weed species EPHHL after post-emergence application (100=total damage to plant; 0=no damage to plant); for pest or weed control at 500 g/ha: application rate 500 g/Ha; for pest or weed control at 1000 g/ha: application rate 1000 g/Ha. In a few lines: as §1

For assay [9], the system named is Echinochloa crus-galli (ECHCG). Particulars: Echinochloa crus-galli, post-emergence, 312 h, evaluated after 13 days, read-out: Control of weed species ECHCG after post-emergence application (100=total damage to plant; 0=no damage to plant); for pest or weed control at 500 g/ha: application rate 500 g/Ha; for pest or weed control at 1000 g/ha: application rate 1000 g/Ha. An outline of the steps:
as §1

For `CC(=O)Nc1cccc2cc[n+](CCS(=O)(=O)[O-])nc12` [Compound A107, 2-(8-acetamidocinnolin-2-ium-2-yl)ethanesulfonate], the pest or weed control at 130 g/ha stood at 70% in assay [1] (application rate 130 g/Ha); 70% in [2] (application rate 130 g/Ha); 40% in assay [3] (application rate 130 g/Ha); 40% in assay [4] (application rate 130 g/Ha); 40% in assay [5] (application rate 130 g/Ha); 60% in assay [6] (application rate 130 g/Ha). The values for the pest or weed control at 130 g/ha in assay [7] (application rate 130 g/Ha), in assay [8] (application rate 130 g/Ha) and in assay [9] (application rate 130 g/Ha) were 40%, 50% and 80%, respectively.
On to `COC(=O)c1ccc2cc[n+](CCS(=O)(=O)[O-])nc2c1` [Compound A108], for which the pest or weed control at 500 g/ha in [1] is 10%; in [2], 70%; in [3] it was 40%; in [4] it was 30%; in [5] it was 10%; in assay [6], 20%. Moreover, the pest or weed control at 500 g/ha turned out to be 10% in assay [7], 50% in assay [8] and 20% in [9].
Take `COC(=O)c1cccc2cc[n+](CCS(=O)(=O)[O-])nc12` [Compound A109, 2-(8-methoxycarbonylcinnolin-2-ium-2-yl)ethanesulfonate]: the pest or weed control at 500 g/ha in assay [1] is 10%; in [2] it was 10%; in assay [3] it was 20%; in assay [4] it was 10%; in assay [5], 10%; in assay [6], 40%. In addition, the pest or weed control at 500 g/ha was found to be 10% in [7], 30% in [8] and 30% in assay [9].
As to `N#Cc1cccc2cc[n+](CCS(=O)(=O)[O-])nc12` [Compound A110, 2-(8-cyanocinnolin-2-ium-2-yl)ethanesulfonate], the pest or weed control at 500 g/ha was 20% in assay [1]; 20% in [2]; 30% in assay [3]; 20% in [4]; 40% in assay [5]; 70% in [6]. Besides, the pest or weed control at 500 g/ha in [7] was 0%; in assay [8], 60%; in assay [9], 20%.
Regarding `O=S(=O)([O-])OCC[n+]1nc2ccccc2cc1Cl` [Compound A111], the pest or weed control at 1000 g/ha in assay [1] stood at 0%; in [2], 10%; in assay [3], 0%; in [4], 20%; in assay [5], 0%; in assay [6] it was 0%. Moreover, the pest or weed control at 1000 g/ha stood at 0% in assay [7], 30% in assay [8] and 0% in assay [9].
For `O=S(=O)(O)CC[n+]1ccc2cc(-c3ccccc3)ccc2n1` [Compound A112], the pest or weed control at 1000 g/ha in [1] turned out to be 20%; in assay [2], 30%; in assay [3], 30%; in [4] it was 30%; in assay [5], 10%; in assay [6], 10%. Moreover, the pest or weed control at 1000 g/ha in [7] is 10%; in assay [8], 20%; in [9] it was 10%.
Regarding `CC(C)(C[n+]1ccc2ccccc2n1)C(=O)O` [Compound A113, 3-cinnolin-2-ium-2-yl-2,2-dimethyl-propanoic Acid 2,2,2-trifluoroacetate], the pest or weed control at 500 g/ha in assay [1] is 20%; in assay [2], 30%; in [3], 10%; in assay [4], 30%; in [5], 10%; in assay [6], 10%. The pest or weed control at 500 g/ha was determined as 20% in assay [7], 10% in [8] and 40% in [9].
In the case of `O=C(NC(C[n+]1ccc2ccccc2n1)C(=O)O)OCc1ccccc1` (stereo not drawn) [Compound A114], the pest or weed control at 500 g/ha in [1] worked out at 20%; in assay [2], 20%; in assay [3], 40%; in [4] it was 30%; in assay [5] it was 30%; in [6] it was 50%. The pest or weed control at 500 g/ha in assay [7] was found to be 10%; in assay [8], 50%; in assay [9] it was 20%.
Consider `CC(CC(=O)O)[n+]1ccc2ccccc2n1` (stereo not drawn) [Compound A115, 3-cinnolin-2-ium-2-ylbutanoic Acid 2,2,2-trifluoroacetate], for which the pest or weed control at 500 g/ha came out at 30% in [1]; 60% in [2]; 40% in assay [3]; 60% in assay [4]; 20% in assay [5]; 100% in assay [6]. Further, the pest or weed control at 500 g/ha in [7], in assay [8] and in assay [9] was 20% each time.

Values taken from patent US20220046923A1, “HERBICIDAL CINNOLINIUM COMPOUNDS” (SYNGENTA CROP PROTECTION AG, priority 2018, published 2022).
